Assays:
Type in all cases: cell-based
[1] = test system: human lung fibroblast Wi-38 cells; test: Quantitative real-time PCR of fibrosis genes in TGF-β-treated Wi-38 fibroblasts; conditions: qRT-PCR, 10 μg mitochondria or 1 μM nintedanib, 18 hours after 6 hours TGF-β
Experimental: (§1) In order to analyze the anti-fibrotic activity of mitochondria, a cell-based analysis experiment was performed using a quantitative real-time polymerase chain reaction.
(§2) CCD8-Lu cells and Wi-38 cells, which are human lung-derived fibroblasts, were cultured in DMEM medium containing 10% FBS, respectively. The cells were inoculated into a 6 well plate at about 2×10^5 cells/well and cultured for 24 hours, and then depletion conditions were performed in DMEM medium without FBS for about 24 hours. After 24 hours, the cells were treated with TGF-β at a concentration of 2.5 ng/mL, and then fibrosis of the cells was induced for 6 hours. After 6 hours, the cells were washed twice with PBS to completely remove the remaining TGF-β. Next, the mitochondria isolated from HEK293, UC-MSC and BM-MSC cells in Preparation Example 1 were mixed in DMEM medium, and the cells were treated with the mitochondria and then further cultured for 18 hours (FIG. 1). […]
(§3) After 18 hours of mitochondria treatment, the culture solution was removed, and the cells were washed twice with a PBS buffer solution, and 0.5 mL of RNA extract (Trizol reagent, Thermo Fisher Scientific) was added directly and then stood at ambient temperature for 10 minutes. […] After drying, about 50 μl of purified RNAase-free distilled water was added, and the quantity and purity of the obtained RNA was measured using a spectrophotometer. […]

[2] = test system: human lung fibroblast CCD8-Lu cells; test: Western blotting of CTGF expression (FIG. 6); conditions: western blotting (FIG. 6), 5 μg mitochondria, 18 hours after 6 hours 2.5 ng/mL TGF-β
Experimental: In order to observe whether the expression of CTGF, a key gene for fibrosis, is regulated by mesenchymal stem cell-derived mitochondria, a cell-based analysis experiment was performed using a Western analysis method.
CCD8-Lu cells (FIG. 6A) and Wi-38 cells (FIG. 6B), which are human lung-derived fibroblasts, were cultured in DMEM medium containing 10% FBS. The cells were inoculated into a 6 well plate at about 2×10^5 cells/well and cultured for 24 hours, and then depletion conditions were performed in DMEM medium without FBS for about 24 hours.
After 24 hours, the cells were treated with TGF-β at a concentration of 2.5 ng/mL, and then fibrosis of the cells was induced for 6 hours. After 6 hours, the cells were washed twice with PBS to completely remove TGF-β. Next, in the same manner as in Preparation Example 1, the mitochondria isolated from UC-MSC and HEK293 cells were mixed in DMEM medium, and the cells were treated with the mitochondria and then further cultured for 18 hours (FIG. 3). […]
The separated supernatant was obtained and transferred to a new microtube, and then protein was quantified using the BCA analysis method. […]

[3] = test system: human lung fibroblast CCD8-Lu cells; test: Quantitative real-time PCR of fibrosis genes in TGF-β-treated CCD8-Lu fibroblasts; conditions: qRT-PCR, 10 μg mitochondria or 1 μM nintedanib, 18 hours after 6 hours TGF-β
Experimental: as §1
as §2, with “1). At this time, the negative control group was not treated with anything, the positive control group was treated with TGF-β alone at a concentration of 5 ng/mL, and the experimental groups were treated with 10 μg of mitochondria isolated from each cell, respectively.” for “1).”
as §3
Changes in the expression of the alpha actin smooth muscle (α-SMA) gene, a characteristic gene of myofibroblast, the CCN2 (or CTGF) gene, a characteristic gene of fibrosis, fibronectin, a characteristic gene of fibrosis, and the NOX-4 gene, a characteristic gene of fibrosis, were observed by quantitative real-time polymerase chain reaction. The GAPDH gene was quantified together to calibrate for differences in the expression.

[4] = test system: human lung fibroblast CCD8-Lu cells; test: Cell immunochemical staining of collagen 1A and fibronectin (FIG. 5); conditions: immunostaining (FIG. 5), 5 μg mitochondria or 1 mM pirfenidone, after 6 hours 2.5 ng/mL TGF-β
Experimental: In order to analyze the anti-fibrotic activity of stem cell-derived mitochondria, a cell-based analysis experiment was performed using a […].
CCD8-Lu cells, which are human lung-derived fibroblasts, were cultured in DMEM medium containing 10% FBS. Thereafter, the cells were inoculated into a 24 well plate at about 2×10^4 cells/well, cultured for 24 hours, and then reacted in DMEM medium without FBS for about 24 hours. After 24 hours, the cells were treated with TGF-β at a concentration of 2.5 ng/mL, and then fibrosis of the cells was induced for 6 hours. After 6 hours, the cells were washed twice with PBS to completely remove TGF-β. Next, the mitochondria isolated from umbilical cord blood mesenchymal stem cell UC-MSC, bone marrow mesenchymal stem cell BM-MSC, dedifferentiated stem cell iPSC and HEK293 cells obtained in Preparation Example 1 were mixed in DMEM medium, and the cells were treated with the mitochondria and then further cultured for 18 hours (FIG. 4). […]
Immunohistochemical analysis for each sample was performed as follows. […] The nucleus was stained using DAPI (4,6-diamidino-2-phenylindole), and analysis of differences in fluorescence intensity was performed using a fluorescence microscope.

Structure (SMILES): COC(=O)c1ccc2c(c1)NC(=O)/C2=C(\Nc1ccc(N(C)C(=O)CN2CCN(C)CC2)cc1)c1ccccc1 [nintedanib]
- expression of CTGF gene induced by TGF-β [1]: weakly inhibited or hardly inhibited
- expression of alpha actin smooth muscle (α-SMA) gene induced by TGF-β [1]: weakly inhibited or hardly inhibited
- expression of CTGF protein induced by TGF-β [2]: hardly inhibited
- expression of CTGF gene induced by TGF-β [3]: weakly inhibited or hardly inhibited
- expression of NOX-4 gene induced by TGF-β [3]: weakly inhibited or hardly inhibited
- expression of alpha actin smooth muscle (α-SMA) gene induced by TGF-β [3]: weakly inhibited or hardly inhibited

Structure (SMILES): Cc1ccc(=O)n(-c2ccccc2)c1 [pirfenidone]
- expression of collagen 1A induced by TGF-β (fluorescence intensity) [4]: weakly inhibited or hardly inhibited
- expression of fibronectin induced by TGF-β (fluorescence intensity) [4]: weakly inhibited or hardly inhibited

Source: patent publication US20230405052A1, “PHARMACEUTICAL COMPOSITION FOR PREVENTING OR TREATING FIBROSIS, COMPRISING ISOLATED MITOCHONDRIA” (Paean Biotechnology Inc., priority 2020, published 2023)
